Reference: ChEMBL document CHEMBL4665709, “Rational Avoidance of Protease Cleavage Sites and Symmetrical End-Tagging Significantly Enhances the Stability and Therapeutic Potential of Antimicrobial Peptides” (J Med Chem, 2020)
Values after ≈ are worked out from the molar mass of the structure shown. Where a SMILES comes first, the peptide text is derived from it.

Tests used:
[1] = Cytotoxicity against mouse RAW264.7 cells assessed as cell viability at 128 uM by MTT assay relative to control; type: cell-based; conditions: read-out: Activity
[2] = Therapeutic index, ratio of MHC for human RBC to geometric mean of peptide MIC for methicillin-resistant Staphylococcus aureus 43300; type: toxicity; conditions: human red blood cells (RBC), read-out: TI
Escherichia coli [3] = test: Antibacterial activity against Escherichia coli ATCC 25922 after 18 to 24 hrs by CLSI-based broth microdilution method; type: functional; conditions: time hrs 18-24
[4] = Therapeutic index, ratio of MHC for human RBC to geometric mean of peptide MIC for Streptococcus agalactiae H92; type: toxicity; conditions: human red blood cells (RBC), read-out: TI
[5] = Therapeutic index, ratio of MHC for human RBC to geometric mean of peptide MIC for Enterococcus faecalis ATCC 29212; type: toxicity; conditions: human red blood cells (RBC), read-out: TI
Enterococcus faecalis = test: Antibacterial activity against Enterococcus faecalis ATCC 29212 after 18 to 24 hrs by CLSI-based broth microdilution method; type: functional; conditions: time hrs 18-24
[6] = Cytotoxicity against HEK-293T cells assessed as cell viability at 128 uM by MTT assay relative to control; type: cell-based; conditions: human, read-out: Activity
Salmonella typhimurium [7] = test: Antibacterial activity against Salmonella typhimurium 7731 after 18 to 24 hrs by CLSI-based broth microdilution method; type: functional, Salmonella enterica subsp. enterica serovar Typhimurium; conditions: Salmonella enterica, time hrs 18-24
Staphylococcus aureus [8] = test: Antibacterial activity against Staphylococcus aureus ATCC 29213 after 18 to 24 hrs by CLSI-based broth microdilution method; type: functional; conditions: time hrs 18-24
Streptococcus agalactiae = test: Antibacterial activity against Streptococcus agalactiae H92 after 18 to 24 hrs by CLSI-based broth microdilution method; type: functional; conditions: time hrs 18-24
Staphylococcus aureus [9] = test: Antibacterial activity against methicillin-resistant Staphylococcus aureus 43300 after 18 to 24 hrs by CLSI-based broth microdilution method; type: functional; conditions: time hrs 18-24
[10] = Therapeutic index, ratio of MHC for human RBC to geometric mean of peptide MIC for Escherichia coli ATCC 25922; type: toxicity; conditions: human red blood cells (RBC), read-out: TI
[11] = Antibacterial activity against Salmonella pullorum 7913 after 18 to 24 hrs by CLSI-based broth microdilution method; type: functional, Salmonella enterica subsp. enterica serovar Pullorum; conditions: Salmonella enterica, time hrs 18-24
[12] = test system: Staphylococcus epidermidis; test: Antibacterial activity against Staphylococcus epidermidis ATCC 12228 after 18 to 24 hrs by CLSI-based broth microdilution method; type: functional; conditions: time hrs 18-24
[13] = Therapeutic index, ratio of MHC for human RBC to geometric mean of peptide MIC for Salmonella typhimurium 7731; type: toxicity; conditions: human red blood cells (RBC), read-out: TI
[14] = Therapeutic index, ratio of MHC for human RBC to geometric mean of peptide MIC for Staphylococcus epidermidis ATCC 12228; type: toxicity; conditions: human red blood cells (RBC), read-out: TI
[15] = Therapeutic index, ratio of MHC for human RBC to geometric mean of peptide MIC for Salmonella typhimurium 14028; type: toxicity; conditions: human red blood cells (RBC), read-out: TI
[16] = Therapeutic index, ratio of MHC for human RBC to geometric mean of peptide MIC for Salmonella pullorum 7913; type: toxicity; conditions: human red blood cells (RBC), read-out: TI
Salmonella enterica = test: Antibacterial activity against Salmonella choleraesuis 503 after 18 to 24 hrs by CLSI-based broth microdilution method; type: functional; conditions: time hrs 18-24
Escherichia coli [17] = test: Antibacterial activity against Escherichia coli UB1005 after 18 to 24 hrs by CLSI-based broth microdilution method; type: functional; conditions: time hrs 18-24
Staphylococcus aureus [18] = test: Antibacterial activity against Staphylococcus aureus 11011 after 18 to 24 hrs by CLSI-based broth microdilution method; type: functional; conditions: time hrs 18-24
[19] = Therapeutic index, ratio of MHC for human RBC to geometric mean of peptide MIC for Salmonella choleraesuis 503; type: toxicity; conditions: human red blood cells (RBC), read-out: TI
[20] = Therapeutic index, ratio of MHC for human RBC to geometric mean of peptide MIC for Staphylococcus aureus 11011; type: toxicity; conditions: human red blood cells (RBC), read-out: TI
[21] = Hemolytic activity in human RBC assessed as hemolysis at 1 to 128 uM relative to control; type: ADME, cell-based, Erythrocyte; conditions: human red blood cells (RBC), dose 1-128 µM, read-out: Activity
Salmonella typhimurium [22] = test: Antibacterial activity against Salmonella typhimurium 14028 after 18 to 24 hrs by CLSI-based broth microdilution method; type: functional, Salmonella enterica subsp. enterica serovar Typhimurium; conditions: Salmonella enterica, time hrs 18-24
[23] = Therapeutic index, ratio of MHC for human RBC to geometric mean of peptide MIC for Escherichia coli UB1005; type: toxicity; conditions: human red blood cells (RBC), read-out: TI
[24] = Therapeutic index, ratio of MHC for human RBC to geometric mean of peptide MIC for Staphylococcus aureus ATCC 29213; type: toxicity; conditions: human red blood cells (RBC), read-out: TI
Erythrocyte = test: Hemolytic activity in human RBC assessed as hemolysis; type: ADME, cell-based

Structure (SMILES) | viability at 128 µM [1] | selectivity ratio [2] | MIC (Escherichia coli [3]) | selectivity ratio [4] | selectivity ratio [5] | MIC (Enterococcus faecalis) | viability at 128 µM [6] | MIC (Salmonella typhimurium [7]) | MIC (Staphylococcus aureus [8]) | MIC (Streptococcus agalactiae) | MIC (Staphylococcus aureus [9]) | selectivity ratio [10] | MIC [11] | MIC [12] | selectivity ratio [13] | selectivity ratio [14] | selectivity ratio [15] | selectivity ratio [16] | MIC (Salmonella enterica) | MIC (Escherichia coli [17]) | further results
CC(C)[C@H](N)C(=O)N[C@@H](CS)C(=O)N[C@@H](CCCNC(=N)N)C(=O)N[C@@H](CCCCN)C(=O)N1CCC[C@H]1C(=O)N[C@H](C(=O)N[C@H](C(=O)N[C@@H](CS)C(=O)N[C@@H](CCCNC(=N)N)C(=O)N[C@@H](CCCCN)C(=O)N1CCC[C@H]1C(=O)N[C@H](C(=O)N[C@H](C(=O)N[C@@H](CS)C(=O)N[C@@H](CCCNC(=N)N)C(=O)N[C@@H](CCCCN)C(=O)N1CCC[C@H]1C(=O)N[C@H](C(=O)N[C@H](C(=O)N[C@@H](CS)C(=O)N[C@@H](CCCNC(=N)N)C(=O)N[C@@H](CCCCN)C(=O)N1CCC[C@H]1C(=O)N[C@H](C(N)=O)C(C)C)C(C)C)C(C)C)C(C)C)C(C)C)C(C)C)C(C)C (H-VCRKPVVCRKPVVCRKPVVCRKPV-NH2) | > 90% | 2 | 8 µM (≈ 22 µg/mL) | 2 | 2 | > 64 µM | > 90% | 8 µM (≈ 22 µg/mL) | > 64 µM | > 64 µM | > 64 µM | 8 | 64 µM (≈ 176 µg/mL) | > 64 µM | 8 | 2 | 8 | 8 | > 64 µM | 8 µM (≈ 22 µg/mL) | MIC (Staphylococcus aureus [18]): > 64 µM; selectivity ratio [19]: 8; selectivity ratio [20]: 2; hemolysis at up to 128 µM [21]: < 5%; MIC (Salmonella typhimurium [22]): 8 µM (≈ 22 µg/mL); selectivity ratio [23]: 8; selectivity ratio [24]: 2; MHC (Erythrocyte): > 128 µM
CC(C)[C@H](N)C(=O)N[C@@H](CS)C(=O)N[C@@H](CCCNC(=N)N)C(=O)N[C@@H](CCCCN)C(=O)N1CCC[C@H]1C(=O)N[C@H](C(=O)N[C@H](C(=O)N[C@@H](CS)C(=O)N[C@@H](CCCNC(=N)N)C(=O)N[C@@H](CCCCN)C(=O)N1CCC[C@H]1C(=O)N[C@H](C(=O)N[C@H](C(=O)N[C@@H](CS)C(=O)N[C@@H](CCCNC(=N)N)C(=O)N[C@@H](CCCCN)C(=O)N1CCC[C@H]1C(=O)N[C@H](C(=O)N[C@H](C(=O)N[C@@H](CS)C(=O)N[C@@H](CCCNC(=N)N)C(=O)N[C@@H](CCCCN)C(=O)N1CCC[C@H]1C(=O)N[C@H](C(=O)N[C@H](C(=O)N[C@@H](CS)C(=O)N[C@@H](CCCNC(=N)N)C(=O)N[C@@H](CCCCN)C(=O)N1CCC[C@H]1C(=O)N[C@H](C(N)=O)C(C)C)C(C)C)C(C)C)C(C)C)C(C)C)C(C)C)C(C)C)C(C)C)C(C)C (H-VCRKPVVCRKPVVCRKPVVCRKPVVCRKPV-NH2) | > 90% | 2 | 4 µM (≈ 13.7 µg/mL) | 2 | 2 | > 64 µM | > 90% | 4 µM (≈ 13.7 µg/mL) | > 64 µM | > 64 µM | > 64 µM | 16 | 16 µM (≈ 54.9 µg/mL) | > 64 µM | 16 | 2 | 16 | 16 | > 64 µM | 4 µM (≈ 13.7 µg/mL) | MIC (Staphylococcus aureus [18]): > 64 µM; selectivity ratio [19]: 16; selectivity ratio [20]: 2; hemolysis at up to 128 µM [21]: < 5%; MIC (Salmonella typhimurium [22]): 4 µM (≈ 13.7 µg/mL); selectivity ratio [23]: 16; selectivity ratio [24]: 2; MHC (Erythrocyte): > 128 µM
